Literature values as cited in patent publication US20050084931A1, “Human prostaglandin DP receptor variants and methods of using same” (priority 2003, published 2005).
Like-named read-outs stand apart in the source and are kept apart here.

Molecular target: T1, human DP receptor (Homo sapiens, UniProt Q13258)
T1 sequence (Q13258 1-359): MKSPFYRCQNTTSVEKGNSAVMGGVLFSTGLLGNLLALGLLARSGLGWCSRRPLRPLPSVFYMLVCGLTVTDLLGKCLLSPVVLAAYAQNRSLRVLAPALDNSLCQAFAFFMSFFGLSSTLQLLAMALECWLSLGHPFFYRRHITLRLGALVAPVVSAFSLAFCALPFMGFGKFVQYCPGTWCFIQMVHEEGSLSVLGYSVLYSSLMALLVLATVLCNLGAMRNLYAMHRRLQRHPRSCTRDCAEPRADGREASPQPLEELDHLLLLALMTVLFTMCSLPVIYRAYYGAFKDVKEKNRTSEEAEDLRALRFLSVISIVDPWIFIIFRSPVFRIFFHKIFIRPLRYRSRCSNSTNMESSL

Compound: CCCCC[C@H](O)/C=C/[C@H]1C(=O)C[C@H](O)[C@@H]1C/C=C\CCCC(=O)O [PGD2, Prostaglandin D2]
- Kd (high-affinity site, read-out: high-affinity binding site): 0.3 nM
- Kd (read-out: lower-affinity site): ~13 nM
